Test results reported in ChEMBL document CHEMBL3046897, “Synthesis of 3-{4-[4-dimethylamino-6-(4-methyl-2-oxo-2H-chromen-7-yloxy)-[1,3,5]triazin-2-ylamino]-phenyl}-2-phenyl-5-(4-pyridin-2-yl-piperazin-1-ylmethyl)-thiazolidin-4-one and their biological evaluation” (2012).
≈ marks a conversion by molar mass, not a printed value.

Experiments:
Assay type in all cases: functional
[1] = test system: Shigella flexneri; test: Antibacterial activity against Shigella flexneri after 24 hr by agar streak dilution method
[2] = test system: Proteus vulgaris; test: Antibacterial activity against Proteus vulgaris after 24 hr by agar streak dilution method
[3] = test system: Salmonella typhi; test: Antibacterial activity against Salmonella enterica subsp. enterica serovar Typhi after 24 hr by agar streak dilution method
[4] = test system: Klebsiella pneumoniae; test: Antibacterial activity against Klebsiella pneumoniae after 24 hr by agar streak dilution method
[5] = test system: Candida albicans; test: Antifungal activity against Candida albicans at 100 ug/disk after 48 hr by paper disk diffusion method; conditions: read-out: IZ
[6] = test system: Aspergillus clavatus; test: Antifungal activity against Aspergillus clavatus at 100 ug/disc after 48 hr by paper disk diffusion method; conditions: read-out: IZ
[7] = test system: Aspergillus fumigatus; test: Antifungal activity against Aspergillus fumigatus at 100 ug/disc after 48 hr by paper disk diffusion method; conditions: read-out: IZ
[8] = test system: Aspergillus niger; test: Antifungal activity against Aspergillus niger at 100 ug/disk after 48 hr by paper disk diffusion method; conditions: read-out: IZ
[9] = test system: Candida albicans; test: Antifungal activity against Candida albicans after 48 hr by agar streak dilution method
[10] = test system: Aspergillus clavatus; test: Antifungal activity against Aspergillus clavatus after 48 hr by agar streak dilution method
[11] = test system: Aspergillus niger; test: Antifungal activity against Aspergillus niger after 48 hr by agar streak dilution method
[12] = test system: Pseudomonas aeruginosa; test: Antibacterial activity against Pseudomonas aeruginosa after 24 hr by agar streak dilution method
[13] = test system: Escherichia coli; test: Antibacterial activity against Escherichia coli after 24 hr by agar streak dilution method
[14] = test system: Shigella flexneri; test: Antibacterial activity against Shigella flexneri at 100 ug/disc after 24 hr by paper disk diffusion method; conditions: read-out: IZ
[15] = test system: Proteus vulgaris; test: Antibacterial activity against Proteus vulgaris at 100 ug/disk after 24 hr by paper disk diffusion method; conditions: read-out: IZ
[16] = test system: Salmonella typhi; test: Antibacterial activity against Salmonella enterica subsp. enterica serovar Typhi at 100 ug/disk after 24 hr by paper disk diffusion method; conditions: read-out: IZ
[17] = test system: Klebsiella pneumoniae; test: Antibacterial activity against Klebsiella pneumoniae at 100 ug/disk after 24 hr by paper disk diffusion method; conditions: read-out: IZ
[18] = test system: Pseudomonas aeruginosa; test: Antibacterial activity against Pseudomonas aeruginosa at 100 ug/disk after 24 hr by paper disk diffusion method; conditions: read-out: IZ
[19] = test system: Escherichia coli; test: Antibacterial activity against Escherichia coli at 100 ug/disk after 24 hr by paper disk diffusion method; conditions: read-out: IZ
[20] = test system: Bacillus subtilis; test: Antibacterial activity against Bacillus subtilis after 24 hr by agar streak dilution method
[21] = test system: Staphylococcus aureus; test: Antibacterial activity against Staphylococcus aureus after 24 hr by agar streak dilution method
[22] = test system: Bacillus subtilis; test: Antibacterial activity against Bacillus subtilis at 100 ug/disk after 24 hr by paper disk diffusion method; conditions: read-out: IZ
[23] = test system: Staphylococcus aureus; test: Antibacterial activity against Staphylococcus aureus at 100 ug/disc after 24 hr by paper disk diffusion method; conditions: read-out: IZ
[24] = test system: Aspergillus fumigatus; test: Antifungal activity against Aspergillus fumigatus after 48 hr by agar streak dilution method

Compound	MIC [1] [µg/mL]	MIC [2] [µg/mL]	MIC [3] [µg/mL]	MIC [4] [µg/mL]	zone of inhibition at 100 µg/disc [5] [mm]	zone of inhibition at 100 µg/disc [6] [mm]	zone of inhibition at 100 µg/disc [7] [mm]	zone of inhibition at 100 µg/disc [8] [mm]	MIC [9] [µg/mL]	MIC [10] [µg/mL]	MIC [11] [µg/mL]	MIC [12] [µg/mL]	zone of inhibition at 100 µg/disc [14] [mm]	zone of inhibition at 100 µg/disc [15] [mm]	zone of inhibition at 100 µg/disc [16] [mm]	zone of inhibition at 100 µg/disc [17] [mm]	zone of inhibition at 100 µg/disc [18] [mm]	zone of inhibition at 100 µg/disc [19] [mm]	MIC [20] [µg/mL]	MIC [21] [µg/mL]	also measured
Cc1cc(=O)oc2cc(Oc3nc(Nc4ccc(N5C(=O)CSC5c5ccc([N+](=O)[O-])cc5)cc4)nc(N(C)C)n3)ccc12 (centres undefined)	100 (≈ 163 µM)	100 (≈ 163 µM)	100 (≈ 163 µM)	100 (≈ 163 µM)	< 10	17	13	12	100 (≈ 163 µM)	100 (≈ 163 µM)	100 (≈ 163 µM)	100 (≈ 163 µM)	11	< 10	16	12	11	13	100 (≈ 163 µM)	100 (≈ 163 µM)	MIC [13]: 100 µg/mL (≈ 163 µM); zone of inhibition at 100 µg/disc [22]: 11 mm; zone of inhibition at 100 µg/disc [23]: 13 mm; MIC [24]: 100 µg/mL (≈ 163 µM)
Cc1cc(=O)oc2cc(Oc3nc(Nc4ccc(N5C(=O)CSC5c5ccc(Cl)c(Cl)c5)cc4)nc(N(C)C)n3)ccc12 (centres undefined)	50 (≈ 78.7 µM)	100 (≈ 157 µM)	50 (≈ 78.7 µM)	100 (≈ 157 µM)	13	18	15	12	100 (≈ 157 µM)	50 (≈ 78.7 µM)	100 (≈ 157 µM)	50 (≈ 78.7 µM)	18	17	18	15	19	14	50 (≈ 78.7 µM)	100 (≈ 157 µM)	MIC [13]: 100 µg/mL (≈ 157 µM); zone of inhibition at 100 µg/disc [22]: 18 mm; zone of inhibition at 100 µg/disc [23]: 16 mm; MIC [24]: 100 µg/mL (≈ 157 µM)
Cc1ccc(C2SCC(=O)N2c2ccc(Nc3nc(Oc4ccc5c(C)cc(=O)oc5c4)nc(N(C)C)n3)cc2)cc1 (centres undefined)	25 (≈ 43.1 µM)	100 (≈ 172 µM)	25 (≈ 43.1 µM)	100 (≈ 172 µM)	20	19	18	20	50 (≈ 86.1 µM)	50 (≈ 86.1 µM)	25 (≈ 43.1 µM)	50 (≈ 86.1 µM)	20	14	19	15	20	13	25 (≈ 43.1 µM)	50 (≈ 86.1 µM)	MIC [13]: 100 µg/mL (≈ 172 µM); zone of inhibition at 100 µg/disc [22]: 19 mm; zone of inhibition at 100 µg/disc [23]: 18 mm; MIC [24]: 50 µg/mL (≈ 86.1 µM)
Cc1cc(=O)oc2cc(Oc3nc(Nc4ccc(/N=C/c5ccc(F)cc5)cc4)nc(N(C)C)n3)ccc12	100 (≈ 196 µM)	50 (≈ 97.9 µM)	50 (≈ 97.9 µM)	100 (≈ 196 µM)	21	19	14	20	25 (≈ 49 µM)	50 (≈ 97.9 µM)	50 (≈ 97.9 µM)	50 (≈ 97.9 µM)	14	17	15	< 10	20	16	50 (≈ 97.9 µM)	25 (≈ 49 µM)	MIC [13]: 50 µg/mL (≈ 97.9 µM); zone of inhibition at 100 µg/disc [22]: 18 mm; zone of inhibition at 100 µg/disc [23]: 20 mm; MIC [24]: 100 µg/mL (≈ 196 µM)
Cc1cc(=O)oc2cc(Oc3nc(Nc4ccc(N5C(=O)C(CN6CCN(c7ccccn7)CC6)SC5c5ccc(O)cc5)cc4)nc(N(C)C)n3)ccc12 (centres undefined)	25 (≈ 33 µM)	12.5 (≈ 16.5 µM)	6.25 (≈ 8.25 µM)	25 (≈ 33 µM)	23	21	25	27	12.5 (≈ 16.5 µM)	25 (≈ 33 µM)	6.25 (≈ 8.25 µM)	12.5 (≈ 16.5 µM)	22	25	27	19	23	30	6.25 (≈ 8.25 µM)	6.25 (≈ 8.25 µM)	MIC [13]: 6.25 µg/mL (≈ 8.25 µM); zone of inhibition at 100 µg/disc [22]: 25 mm; zone of inhibition at 100 µg/disc [23]: 27 mm; MIC [24]: 6.25 µg/mL (≈ 8.25 µM)
COc1ccc(/C=N/c2ccc(Nc3nc(Oc4ccc5c(C)cc(=O)oc5c4)nc(N(C)C)n3)cc2)cc1	100 (≈ 191 µM)	50 (≈ 95.7 µM)	50 (≈ 95.7 µM)	100 (≈ 191 µM)	17	11	13	16	50 (≈ 95.7 µM)	100 (≈ 191 µM)	50 (≈ 95.7 µM)	100 (≈ 191 µM)	10	16	18	14	12	10	100 (≈ 191 µM)	100 (≈ 191 µM)	MIC [13]: 100 µg/mL (≈ 191 µM); zone of inhibition at 100 µg/disc [22]: 13 mm; zone of inhibition at 100 µg/disc [23]: 15 mm; MIC [24]: 100 µg/mL (≈ 191 µM)
Cc1ccc(C2SC(CN3CCN(c4ccccn4)CC3)C(=O)N2c2ccc(Nc3nc(Oc4ccc5c(C)cc(=O)oc5c4)nc(N(C)C)n3)cc2)cc1 (centres undefined)	25 (≈ 33.1 µM)	50 (≈ 66.1 µM)	25 (≈ 33.1 µM)	50 (≈ 66.1 µM)	24	22	20	23	12.5 (≈ 16.5 µM)	25 (≈ 33.1 µM)	12.5 (≈ 16.5 µM)	50 (≈ 66.1 µM)	22	18	21	19	22	18	12.5 (≈ 16.5 µM)	25 (≈ 33.1 µM)	MIC [13]: 50 µg/mL (≈ 66.1 µM); zone of inhibition at 100 µg/disc [22]: 22 mm; zone of inhibition at 100 µg/disc [23]: 20 mm; MIC [24]: 25 µg/mL (≈ 33.1 µM)
Cc1cc(=O)oc2cc(Oc3nc(Nc4ccc(N5C(=O)C(CN6CCN(c7ccccn7)CC6)SC5c5ccc([N+](=O)[O-])cc5)cc4)nc(N(C)C)n3)ccc12 (centres undefined)	100 (≈ 127 µM)	100 (≈ 127 µM)	50 (≈ 63.5 µM)	100 (≈ 127 µM)	13	20	18	15	100 (≈ 127 µM)	50 (≈ 63.5 µM)	100 (≈ 127 µM)	100 (≈ 127 µM)	14	10	18	15	13	16	100 (≈ 127 µM)	100 (≈ 127 µM)	MIC [13]: 100 µg/mL (≈ 127 µM); zone of inhibition at 100 µg/disc [22]: 13 mm; zone of inhibition at 100 µg/disc [23]: 16 mm; MIC [24]: 50 µg/mL (≈ 63.5 µM)
Cc1cc(=O)oc2cc(Oc3nc(Nc4ccc(N5C(=O)CSC5c5ccc(Cl)cc5)cc4)nc(N(C)C)n3)ccc12 (centres undefined)	12.5 (≈ 20.8 µM)	25 (≈ 41.6 µM)	25 (≈ 41.6 µM)	50 (≈ 83.2 µM)	22	21	18	15	25 (≈ 41.6 µM)	25 (≈ 41.6 µM)	100 (≈ 166 µM)	100 (≈ 166 µM)	24	20	21	18	15	20	100 (≈ 166 µM)	50 (≈ 83.2 µM)	MIC [13]: 50 µg/mL (≈ 83.2 µM); zone of inhibition at 100 µg/disc [22]: 16 mm; zone of inhibition at 100 µg/disc [23]: 18 mm; MIC [24]: 50 µg/mL (≈ 83.2 µM)
CC(=O)N1CCN(c2ccc(OCC3COC(Cn4ccnc4)(c4ccc(Cl)cc4Cl)O3)cc2)CC1 (centres undefined) [KETOCONAZOLE]	–	–	–	–	33	31	29	30	1 (≈ 1.88 µM)	1 (≈ 1.88 µM)	≤ 3	–	–	–	–	–	–	–	–	–	MIC [24]: 1 µg/mL (≈ 1.88 µM)
O=C(O)c1cn(C2CC2)c2cc(N3CCNCC3)c(F)cc2c1=O [CIPROFLOXACIN]	≤ 3	1 (≈ 3.02 µM)	1 (≈ 3.02 µM)	1 (≈ 3.02 µM)	–	–	–	–	–	–	–	1 (≈ 3.02 µM)	32	31	30	33	33	32	1 (≈ 3.02 µM)	1 (≈ 3.02 µM)	zone of inhibition at 100 µg/disc [22]: 31 mm; zone of inhibition at 100 µg/disc [23]: 30 mm
